# Data taken from ChEMBL document CHEMBL3397033, “Bioactive benzofuran derivatives: moracins A-Z in medicinal chemistry” (Eur J Med Chem, 2015).
# Key:
# Escherichia coli [1] = assay: Antimicrobial activity against Escherichia coli; format: functional
# Klebsiella pneumoniae [2] = assay: Antimicrobial activity against Klebsiella pneumoniae; format: functional
# Pseudomonas aeruginosa [3] = assay: Antimicrobial activity against Pseudomonas aeruginosa; format: functional
# Escherichia coli [4] = assay: Antimicrobial activity against Escherichia coli by liquid microdilution assay; format: functional
# Shigella dysenteriae [5] = assay: Antimicrobial activity against Shigella dysenteriae by liquid microdilution assay; format: functional
# Pseudomonas aeruginosa [6] = assay: Antimicrobial activity against Pseudomonas aeruginosa by liquid microdilution assay; format: functional
# Klebsiella pneumoniae [7] = assay: Antimicrobial activity against Klebsiella pneumoniae by liquid microdilution assay; format: functional
# Salmonella typhi [8] = assay: Antimicrobial activity against Salmonella typhi by liquid microdilution assay; format: functional, Salmonella enterica subsp. enterica serovar Typhi; conditions: Salmonella enterica
# Bacillus cereus [9] = assay: Antimicrobial activity against Bacillus cereus by liquid microdilution assay; format: functional
# Staphylococcus aureus [10] = assay: Antimicrobial activity against Staphylococcus aureus by liquid microdilution assay; format: functional
# Enterococcus faecalis [11] = assay: Antimicrobial activity against Streptococcus faecalis by liquid microdilution assay; format: functional
# Microsporum audouinii [12] = assay: Antimicrobial activity against Microsporum audouinii by liquid microdilution assay; format: functional
# Escherichia coli [13] = assay: Microbicidal activity against Escherichia coli by liquid microdilution assay; format: functional
# Shigella dysenteriae [14] = assay: Microbicidal activity against Shigella dysenteriae by liquid microdilution assay; format: functional
# Pseudomonas aeruginosa [15] = assay: Microbicidal activity against Pseudomonas aeruginosa by liquid microdilution assay; format: functional
# Klebsiella pneumoniae [16] = assay: Microbicidal activity against Klebsiella pneumoniae by liquid microdilution assay; format: functional
# Salmonella typhi [17] = assay: Microbicidal activity against Salmonella typhi by liquid microdilution assay; format: functional, Salmonella enterica subsp. enterica serovar Typhi; conditions: Salmonella enterica
# Bacillus cereus [18] = assay: Microbicidal activity against Bacillus cereus by liquid microdilution assay; format: functional
# Staphylococcus aureus [19] = assay: Microbicidal activity against Staphylococcus aureus by liquid microdilution assay; format: functional
# Enterococcus faecalis [20] = assay: Microbicidal activity against Streptococcus faecalis by liquid microdilution assay; format: functional
# Microsporum audouinii [21] = assay: Microbicidal activity against Microsporum audouinii by liquid microdilution assay; format: functional
# [22] = Antioxidant activity assessed as DPPH radical scavenging activity measured as discoloration at 12.5 ug/ml; format: physicochemical
# [23] = Antioxidant activity assessed as DPPH radical scavenging activity measured as discoloration at 25 ug/ml; format: physicochemical
# [24] = Antioxidant activity assessed as DPPH radical scavenging activity measured as discoloration at 50 ug/ml; format: physicochemical
# [25] = Antioxidant activity assessed as DPPH radical scavenging activity measured as discoloration at 100 ug/ml; format: physicochemical
# [26] = Antioxidant activity assessed as DPPH radical scavenging activity; format: physicochemical
# RAW264.7 [27] = assay: Antiinflammatory activity against mouse RAW264.7 cells assessed as reduction of IFNgamma-induced NO production; format: functional, cell-based
# RAW264.7 [28] = assay: Antiinflammatory activity against mouse RAW264.7 cells assessed as reduction of LPS-induced NO production; format: functional, cell-based
# A549 = assay: Cytotoxicity against human A549 cells after 96 hrs by MTT assay; format: functional, cell-based; conditions: A549, 96 h
# [29] = Cytotoxicity against human Bel7402 cells after 96 hrs by MTT assay; format: functional, cell-based; conditions: Bel-7402, 96 h
# [30] = Cytotoxicity against human BGC823 cells after 96 hrs by MTT assay; format: functional, cell-based; conditions: BGC-823, 96 h
# [31] = Cytotoxicity against human HCT8 cells after 96 hrs by MTT assay; format: functional, cell-based; conditions: HCT-8, 96 h
# A2780 = assay: Cytotoxicity against human A2780 cells after 96 hrs by MTT assay; format: functional, cell-based; conditions: A2780, 96 h
# Morus alba = assay: Antioxidant activity in mulberry leaves assessed as UV-stress-induced free radical scavenging activity measured as inhibition of blue formazan at 100 uM; format: functional
# [32] = Inhibition of alpha-glucosidase (unknown origin); design: species or system Homo sapiens
# Tyrosinase = Tyrosinase (Agaricus bisporus, UniProt O42713); assay: Inhibition of mushroom tyrosinase
# [33] = Antifungal activity against Fusarium roseum; format: functional
# [34] = Antifungal activity against Fusarium lateritium f. sp. mori; format: functional
# [35] = Antifungal activity against Fusarium solani f. sp. mori; format: functional
# [36] = Antifungal activity against Diaporthe nomurai; format: functional
# [37] = Antifungal activity against Stigmina mori; format: functional
# Rosellinia necatrix = assay: Antifungal activity against Rosellinia necatrix; format: functional
# [38] = Antifungal activity against Cochliobolus miyabeanus; format: functional; conditions: Bipolaris oryzae
# Citrobacter freundii [39] = assay: Antimicrobial activity against Citrobacter freundii by liquid microdilution assay; format: functional
# Candida albicans [40] = assay: Antimicrobial activity against Candida albicans by liquid microdilution assay; format: functional
# Citrobacter freundii [41] = assay: Microbicidal activity against Citrobacter freundii by liquid microdilution assay; format: functional
# Candida albicans [42] = assay: Microbicidal activity against Candida albicans by liquid microdilution assay; format: functional
# Chain of Tyrosinase (O42713 whole entry): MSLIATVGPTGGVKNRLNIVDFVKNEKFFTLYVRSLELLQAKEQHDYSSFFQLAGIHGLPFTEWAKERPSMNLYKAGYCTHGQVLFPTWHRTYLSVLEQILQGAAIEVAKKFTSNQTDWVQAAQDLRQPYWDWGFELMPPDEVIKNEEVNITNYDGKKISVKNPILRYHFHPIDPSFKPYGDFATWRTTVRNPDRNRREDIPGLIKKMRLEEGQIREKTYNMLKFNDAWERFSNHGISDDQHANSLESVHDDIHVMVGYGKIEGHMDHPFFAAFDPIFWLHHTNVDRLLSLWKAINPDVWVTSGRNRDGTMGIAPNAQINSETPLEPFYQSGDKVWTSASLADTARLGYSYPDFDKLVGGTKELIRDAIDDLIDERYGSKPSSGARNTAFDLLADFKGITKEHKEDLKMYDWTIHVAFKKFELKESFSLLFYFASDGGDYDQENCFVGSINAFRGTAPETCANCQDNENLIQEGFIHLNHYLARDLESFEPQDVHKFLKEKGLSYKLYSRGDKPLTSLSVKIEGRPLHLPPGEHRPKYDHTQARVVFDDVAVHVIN
compound,measurement,setting,value
COc1cc(O)cc(-c2cc3cc(O)c(OC)cc3o2)c1,MIC,Escherichia coli [1],> 100 µg/mL
same,MIC,Klebsiella pneumoniae [2],> 100 µg/mL
same,MIC,Pseudomonas aeruginosa [3],> 100 µg/mL
CC(C)(O)C(O)Cc1cc2cc(-c3cc(O)cc(O)c3)oc2cc1O (stereo unspecified),MIC,Escherichia coli [1],> 100 µg/mL
same,MIC,Klebsiella pneumoniae [2],> 100 µg/mL
same,MIC,Pseudomonas aeruginosa [3],> 100 µg/mL
same,MIC,Escherichia coli [4],78 µg/mL
same,MIC,Shigella dysenteriae [5],78 µg/mL
same,MIC,Pseudomonas aeruginosa [6],10 µg/mL
same,MIC,Klebsiella pneumoniae [7],312 µg/mL
same,MIC,Salmonella typhi [8],156 µg/mL
same,MIC,Bacillus cereus [9],156 µg/mL
same,MIC,Staphylococcus aureus [10],312 µg/mL
same,MIC,Enterococcus faecalis [11],156 µg/mL
same,MIC,Microsporum audouinii [12],312 µg/mL
same,MBC,Escherichia coli [13],625 µg/mL
same,MBC,Shigella dysenteriae [14],312 µg/mL
same,MBC,Pseudomonas aeruginosa [15],39 µg/mL
same,MBC,Klebsiella pneumoniae [16],625 µg/mL
same,MBC,Salmonella typhi [17],312 µg/mL
same,MBC,Bacillus cereus [18],625 µg/mL
same,MBC,Staphylococcus aureus [19],625 µg/mL
same,MBC,Enterococcus faecalis [20],312 µg/mL
same,MFC,Microsporum audouinii [21],625 µg/mL
same,Activity,[22],34.6%
same,Activity,[23],38.2%
same,Activity,[24],48%
same,Activity,[25],50%
same,EC50,[26],7.17 µg/mL
same,IC50,RAW264.7 [27],14.3 µM
same,IC50,RAW264.7 [28],14.3 µM
CC(C)=CCc1cc2cc(-c3cc(O)cc(O)c3)oc2cc1O [MORACIN N],MIC,Escherichia coli [1],> 100 µg/mL
same,MIC,Klebsiella pneumoniae [2],> 100 µg/mL
same,MIC,Pseudomonas aeruginosa [3],> 100 µg/mL
same,IC50,A549,> 10 µg/mL
same,IC50,[29],> 10 µg/mL
same,IC50,[30],> 10 µg/mL
same,IC50,[31],> 10 µg/mL
same,IC50,A2780,> 10 µg/mL
same,inhibition,Morus alba,76%
same,IC50,[32],2.76 µM
same,IC50,Tyrosinase,0.924 µM
CC1(C)C=Cc2c(cc(O)cc2-c2cc3ccc(O)cc3o2)O1,MIC,Escherichia coli [1],> 100 µg/mL
same,MIC,Klebsiella pneumoniae [2],> 100 µg/mL
same,MIC,Pseudomonas aeruginosa [3],> 100 µg/mL
same,MIC,[33],15 µg/mL
same,MIC,[34],50 µg/mL
same,MIC,[35],200 µg/mL
same,MIC,[36],15 µg/mL
same,MIC,[37],200 µg/mL
same,MIC,Rosellinia necatrix,15 µg/mL
same,MIC,[38],100 µg/mL
CC(C)=CCc1c(O)ccc2cc(-c3cc(O)cc(O)c3)oc12,MIC,Escherichia coli [1],> 100 µg/mL
same,MIC,Klebsiella pneumoniae [2],> 100 µg/mL
same,MIC,Pseudomonas aeruginosa [3],> 100 µg/mL
same,Activity,[22],55%
same,Activity,[23],62.25%
same,Activity,[24],67.87%
same,Activity,[25],69.72%
same,EC50,[26],5.06 µg/mL
C/C(=C/Cc1c(O)c2c(c3cc(-c4cc(O)cc(O)c4)oc13)C=CC(C)(C)O2)CCCC(C)(C)O,MIC,Escherichia coli [1],> 100 µg/mL
same,MIC,Klebsiella pneumoniae [2],> 100 µg/mL
same,MIC,Pseudomonas aeruginosa [3],> 100 µg/mL
same,IC50,A549,> 10 µg/mL
same,IC50,[29],> 10 µg/mL
same,IC50,[30],8.3 µg/mL
same,IC50,[31],9.2 µg/mL
same,IC50,A2780,> 10 µg/mL
CC1(C)C=Cc2c(O)cc(-c3cc4ccc(O)cc4o3)cc2O1 [MORACIN D],MIC,Escherichia coli [1],> 100 µg/mL
same,MIC,Klebsiella pneumoniae [2],> 100 µg/mL
same,MIC,Pseudomonas aeruginosa [3],> 100 µg/mL
same,MIC,[33],7 µg/mL
same,MIC,[34],28 µg/mL
same,MIC,[35],112 µg/mL
same,MIC,[36],7 µg/mL
same,MIC,[37],56 µg/mL
same,MIC,Rosellinia necatrix,< 3.5 µg/mL
same,MIC,[38],14 µg/mL
same,IC50,[32],2.54 µM
same,IC50,RAW264.7 [27],18 µM
same,IC50,RAW264.7 [28],18 µM
CC1(C)Oc2cc3oc(-c4cc(O)cc(O)c4)cc3cc2C(O)C1O (stereo unspecified),MIC,Escherichia coli [1],> 100 µg/mL
same,MIC,Klebsiella pneumoniae [2],> 100 µg/mL
same,MIC,Pseudomonas aeruginosa [3],> 100 µg/mL
CC1(C)C=Cc2c(c(O)cc3cc(-c4cc(O)cc(O)c4)oc23)O1,MIC,Escherichia coli [1],> 100 µg/mL
same,MIC,Klebsiella pneumoniae [2],> 100 µg/mL
same,MIC,Pseudomonas aeruginosa [3],> 100 µg/mL
CC1=CCc2c(ccc3cc(-c4cc(O)cc(O)c4)oc23)OC1,MIC,Escherichia coli [1],> 100 µg/mL
same,MIC,Klebsiella pneumoniae [2],> 100 µg/mL
same,MIC,Pseudomonas aeruginosa [3],> 100 µg/mL
same,MIC,[33],15 µg/mL
same,MIC,[34],500 µg/mL
same,MIC,[35],500 µg/mL
same,MIC,[36],50 µg/mL
same,MIC,[37],50 µg/mL
same,MIC,Rosellinia necatrix,15 µg/mL
same,MIC,[38],50 µg/mL
CC1(O)C=Cc2c(c(O)cc3cc(-c4cc(O)cc(O)c4)oc23)OC1 (stereo unspecified),MIC,Escherichia coli [1],> 100 µg/mL
same,MIC,Klebsiella pneumoniae [2],> 100 µg/mL
same,MIC,Pseudomonas aeruginosa [3],> 100 µg/mL
same,MIC,Citrobacter freundii [39],312 µg/mL
same,MIC,Escherichia coli [4],10 µg/mL
same,MIC,Shigella dysenteriae [5],78 µg/mL
same,MIC,Pseudomonas aeruginosa [6],625 µg/mL
same,MIC,Klebsiella pneumoniae [7],156 µg/mL
same,MIC,Salmonella typhi [8],39 µg/mL
same,MIC,Bacillus cereus [9],10 µg/mL
same,MIC,Staphylococcus aureus [10],156 µg/mL
same,MIC,Enterococcus faecalis [11],20 µg/mL
same,MIC,Candida albicans [40],312 µg/mL
same,MIC,Microsporum audouinii [12],78 µg/mL
same,MBC,Citrobacter freundii [41],625 µg/mL
same,MBC,Escherichia coli [13],39 µg/mL
same,MBC,Shigella dysenteriae [14],156 µg/mL
same,MBC,Klebsiella pneumoniae [16],312 µg/mL
same,MBC,Salmonella typhi [17],78 µg/mL
same,MBC,Bacillus cereus [18],39 µg/mL
same,MBC,Staphylococcus aureus [19],312 µg/mL
same,MBC,Enterococcus faecalis [20],78 µg/mL
same,MFC,Candida albicans [42],625 µg/mL
same,MFC,Microsporum audouinii [21],312 µg/mL
same,Activity,[22],38.5%
same,Activity,[23],42.09%
same,Activity,[24],49.98%
same,Activity,[25],53.6%
same,EC50,[26],6.08 µg/mL
